# Experimental data from US20250034159A1, “INHIBITORS OF EPIDERMAL GROWTH FACTOR RECEPTOR” (ORIC Pharmaceuticals, Inc., priority 2021, published 2025).
# pIC50: −log10 of the molar value. Where two headings read alike, the source gives them in different places.
# Legend:
# [1] = target: recombinant human EGFR exon 19 deletion/C797S double mutant protein (Homo sapiens (Human), UniProt P00533, C797S/DEL746-750); assay: Biological Activity Assay C: biochemical assay against EGFR exon 19 deletion/C797S protein (EGFR d19/CS)
# Outline: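 IC50 values were fitted with a 4-parameter model to reaction slopes taken from 90 kinetic reads spaced 120 s apart. The Phosphosens sensor/ATP working solution was 40 uM/4 mM, and compound was dosed as 16-point dilutions at 2.5% final DMSO.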
# Ba/F3_EGFR WT cells = assay: Biological Activity Assay D: BaF3 cell proliferation assay, EGFR wild-type (BaF3 WT); type: cell-based; conditions: Ba/F3 EGFR, read-out: BaF3 WT IC50
# BaF3_EGFR LR/CS cells = assay: Biological Activity Assay D: BaF3 cell proliferation assay, EGFR L858R/C797S mutant (BaF3 LR/CS); type: cell-based; conditions: Ba/F3 EGFR, read-out: BaF3 LR/CS IC50
# BaF3_EGFR d19/CS cells = assay: Biological Activity Assay D: BaF3 cell proliferation assay, EGFR exon 19 deletion/C797S (BaF3 d19/CS); type: cell-based; conditions: Ba/F3 EGFR, read-out: BaF3 d19/CS IC50
# [2] = Ba/F3_EGFR WT cells, ~72 hours, CellTiter-Glo
# [3] = BaF3_EGFR LR/CS cells, ~72 hours, CellTiter-Glo
# [4] = BaF3_EGFR d19/CS cells, ~72 hours, CellTiter-Glo
# recombinant human EGFR exon 19 deletion/C797S double mutant protein, sequence (P00533 other isoform, or with tags, fused parts or gaps C797S/del 1-668/del 746-750 limits assumed): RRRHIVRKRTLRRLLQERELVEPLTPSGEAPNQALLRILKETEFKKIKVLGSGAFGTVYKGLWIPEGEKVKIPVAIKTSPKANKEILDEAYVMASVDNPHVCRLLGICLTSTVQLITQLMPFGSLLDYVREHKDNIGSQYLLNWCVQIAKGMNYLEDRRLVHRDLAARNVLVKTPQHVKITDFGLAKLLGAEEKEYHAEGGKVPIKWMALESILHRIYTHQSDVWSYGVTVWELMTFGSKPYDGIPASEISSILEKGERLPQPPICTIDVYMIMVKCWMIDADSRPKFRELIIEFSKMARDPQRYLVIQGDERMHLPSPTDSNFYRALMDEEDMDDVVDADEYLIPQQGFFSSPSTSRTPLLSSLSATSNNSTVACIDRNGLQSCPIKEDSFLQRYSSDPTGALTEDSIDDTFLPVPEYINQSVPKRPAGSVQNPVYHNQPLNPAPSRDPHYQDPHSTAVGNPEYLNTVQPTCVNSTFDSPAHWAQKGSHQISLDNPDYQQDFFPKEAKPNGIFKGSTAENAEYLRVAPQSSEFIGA
Structure (SMILES),pIC50 [1],pIC50 (Ba/F3_EGFR WT cells; [2]),pIC50 (BaF3_EGFR LR/CS cells; [3]),pIC50 (BaF3_EGFR d19/CS cells; [4]),pIC50 (Ba/F3_EGFR WT cells; 72 h),pIC50 (BaF3_EGFR LR/CS cells; 72 h),pIC50 (BaF3_EGFR d19/CS cells; 72 h)
"Cn1cc(-c2cc3c(-c4cn(CC(C)(C)O)nc4-c4ccc(F)cc4)ncnc3o2)cn1 [Example 261, 1-{3-(4-fluorophenyl)-4-[6-(1-methyl-1H-pyrazol-4-yl)furo[2,3-d]pyrimidin-4-yl]-1H-pyrazol-1-yl}-2-methylpropan-2-ol]",9.69,6.26,8.34,8.00,–,–,–
"CC(C)(O)Cn1cc(-c2ncnc3oc(-c4ccccc4Cl)cc23)c(-c2ccc(F)cc2)n1 [Example 262, 1-{4-[6-(2-chlorophenyl)furo[2,3-d]pyrimidin-4-yl]-3-(4-fluorophenyl)-1H-pyrazol-1-yl}-2-methylpropan-2-ol]",9.40,5.39,7.11,7.33,–,–,–
"Cn1cnc(-c2cc3c(-c4cn(CCC(F)F)nc4-c4ccc(F)cc4)ncnc3o2)c1 [Example 263, 4-[1-(3,3-difluoropropyl)-3-(4-fluorophenyl)-1H-pyrazol-4-yl]-6-(1-methyl-1H-imidazol-4-yl)furo[2,3-d]pyrimidine]",9.82,6.63,8.63,8.21,–,–,–
"Cn1cnc(-c2cc3c(-c4cn([C@H]5C[C@@H](F)C5)nc4-c4ccc(F)cc4)ncnc3o2)c1 [Example 264, 4-{1-[(1s,3s)-3-fluorocyclobutyl]-3-(4-fluorophenyl)-1H-pyrazol-4-yl}-6-(1-methyl-1H-imidazol-4-yl)furo[2,3-d]pyrimidine]",9.87,6.35,8.18,8.05,–,–,–
"Cn1cnc(-c2cc3c(-c4cn(CCC#N)nc4-c4ccc(F)cc4)ncnc3o2)c1 [Example 265, 3-{3-(4-fluorophenyl)-4-[6-(1-methyl-1H-imidazol-4-yl)furo[2,3-d]pyrimidin-4-yl]-1H-pyrazol-1-yl}propanenitrile]",10.11,7.16,8.84,8.84,–,–,–
"Cn1cnc(-c2cc3c(-c4cn(CC(F)(F)CO)nc4-c4ccc(F)cc4)ncnc3o2)c1 [Example 266, 2,2-difluoro-3-{3-(4-fluorophenyl)-4-[6-(1-methyl-1H-imidazol-4-yl)furo[2,3-d]pyrimidin-4-yl]-1H-pyrazol-1-yl}propan-1-ol]",10.03,6.87,8.67,8.60,–,–,–
"Cn1ncc(-c2cc3c(-c4cn(CC(C)(C)O)nc4-c4ccc(F)cc4)ncnc3o2)c1C(F)F [Example 267, 1-[4-{6-[5-(difluoromethyl)-1-methyl-1H-pyrazol-4-yl]furo[2,3-d]pyrimidin-4-yl}-3-(4-fluorophenyl)-1H-pyrazol-1-yl]-2-methylpropan-2-ol]",9.73,6.16,7.65,7.80,–,–,–
"N#CCCn1cc(-c2ncnc3oc(-c4cccnc4)cc23)c(-c2ccc(F)cc2)n1 [Example 268, 3-{3-(4-fluorophenyl)-4-[6-(pyridin-3-yl)furo[2,3-d]pyrimidin-4-yl]-1H-pyrazol-1-yl}propanenitrile]",9.98,6.38,7.78,7.87,–,–,–
"N#CCCn1cc(-c2ncnc3oc(-c4ccccn4)cc23)c(-c2ccc(F)cc2)n1 [Example 269, 3-{3-(4-fluorophenyl)-4-[6-(pyridin-2-yl)furo[2,3-d]pyrimidin-4-yl]-1H-pyrazol-1-yl}propanenitrile]",10.09,6.41,8.06,8.11,–,–,–
"Cn1cnc(-c2cc3c(-c4cn([C@H]5C[C@H](C#N)C5)nc4-c4ccc(F)cc4)ncnc3o2)c1 [Example 270, (1r,3r)-3-{3-(4-fluorophenyl)-4-[6-(1-methyl-1H-imidazol-4-yl)furo[2,3-d]pyrimidin-4-yl]-1H-pyrazol-1-yl}cyclobutane-1-carbonitrile]",9.64,6.87,8.73,8.88,–,–,–
"COc1ncccc1-c1cc2c(-c3cn(CC(C)(C)O)nc3-c3ccc(F)cc3)ncnc2o1 [Example 271, 1-{3-(4-fluorophenyl)-4-[6-(2-methoxypyridin-3-yl)furo[2,3-d]pyrimidin-4-yl]-1H-pyrazol-1-yl}-2-methylpropan-2-ol]",9.60,5.79,7.69,7.85,–,–,–
"Cc1c(-c2cc3c(-c4cn(CC(C)(C)O)nc4-c4ccc(F)cc4)ncnc3o2)ncn1C [Example 272, 1-{4-[6-(1,5-dimethyl-1H-imidazol-4-yl)furo[2,3-d]pyrimidin-4-yl]-3-(4-fluorophenyl)-1H-pyrazol-1-yl}-2-methylpropan-2-ol]",9.31,–,–,–,6.18,7.87,7.80
"Cn1ccc(-c2cc3c(-c4cn(CC(C)(C)O)nc4-c4ccc(F)cc4)ncnc3o2)n1 [Example 275, 1-{3-(4-fluorophenyl)-4-[6-(1-methyl-1H-pyrazol-3-yl)furo[2,3-d]pyrimidin-4-yl]-1H-pyrazol-1-yl}-2-methylpropan-2-ol]",9.68,6.26,7.87,7.92,–,–,–
"COc1ccc(-c2cc3c(-c4cn(CC(C)(C)O)nc4-c4ccc(F)cc4)ncnc3o2)nc1 [Example 276, 1-{3-(4-fluorophenyl)-4-[6-(5-methoxypyridin-2-yl)furo[2,3-d]pyrimidin-4-yl]-1H-pyrazol-1-yl}-2-methylpropan-2-ol]",10.15,6.17,7.72,7.87,–,–,–
"CC(C)(O)Cn1cc(-c2ncnc3oc(-c4ccc(F)cn4)cc23)c(-c2ccc(F)cc2)n1 [Example 277, 1-{3-(4-fluorophenyl)-4-[6-(5-fluoropyridin-2-yl)furo[2,3-d]pyrimidin-4-yl]-1H-pyrazol-1-yl}-2-methylpropan-2-ol]",9.48,5.82,7.13,7.40,–,–,–
"Cn1cnc(-c2cc3c(-c4cn([C@H]5C[C@H](O)C5)nc4-c4ccc(F)cc4)ncnc3o2)c1 [Example 278, (1r,3r)-3-{3-(4-fluorophenyl)-4-[6-(1-methyl-1H-imidazol-4-yl)furo[2,3-d]pyrimidin-4-yl]-1H-pyrazol-1-yl}cyclobutan-1-ol]",9.91,6.57,8.29,8.37,–,–,–
"Cc1nn(C)cc1-c1cc2c(-c3cn([C@H]4C[C@H](C#N)C4)nc3-c3ccc(F)cc3)ncnc2o1 [Example 279, (1r,3r)-3-{4-[6-(1,3-dimethyl-1H-pyrazol-4-yl)furo[2,3-d]pyrimidin-4-yl]-3-(4-fluorophenyl)-1H-pyrazol-1-yl}cyclobutane-1-carbonitrile]",9.97,6.32,8.05,8.25,–,–,–
"Cc1nn(C)c(C(F)F)c1-c1cc2c(-c3cn(CC(C)(C)O)nc3-c3ccc(F)cc3)ncnc2o1 [Example 280, 1-[4-{6-[5-(difluoromethyl)-1,3-dimethyl-1H-pyrazol-4-yl]furo[2,3-d]pyrimidin-4-yl}-3-(4-fluorophenyl)-1H-pyrazol-1-yl]-2-methylpropan-2-ol]",9.54,6.07,7.42,7.50,–,–,–
"CC(C)(O)Cn1cc(-c2ncnc3oc(-c4cccc(F)n4)cc23)c(-c2ccc(F)cc2)n1 [Example 281, 1-{3-(4-fluorophenyl)-4-[6-(6-fluoropyridin-2-yl)furo[2,3-d]pyrimidin-4-yl]-1H-pyrazol-1-yl}-2-methylpropan-2-ol]",9.37,–,–,–,5.74,7.09,7.24
"Cc1nc(-c2cc3c(-c4cn(CC(C)(C)O)nc4-c4ccc(F)cc4)ncnc3o2)ccc1F [Example 282, 1-{4-[6-(5-fluoro-6-methylpyridin-2-yl)furo[2,3-d]pyrimidin-4-yl]-3-(4-fluorophenyl)-1H-pyrazol-1-yl}-2-methylpropan-2-ol]",9.51,5.70,7.20,7.39,–,–,–
"CC(C)(O)Cn1cc(-c2ncnc3oc(-c4cccnc4O)cc23)c(-c2ccc(F)cc2)n1 [Example 283, 3-{4-[3-(4-fluorophenyl)-1-(2-hydroxy-2-methylpropyl)-1H-pyrazol-4-yl]furo[2,3-d]pyrimidin-6-yl}pyridin-2-ol]",9.95,6.18,8.01,8.02,–,–,–
"CC(C)(O)Cn1cc(-c2ncnc3oc(-c4cnn5c4OCCC5(C)C)cc23)c(-c2ccc(F)cc2)n1 [Example 284, 1-(4-(6-(7,7-dimethyl-6,7-dihydro-5H-pyrazolo[5,1-b][,3]oxazin-3-yl)furo[2,3-d]pyrimidin-4-yl)-3-(4-fluorophenyl)-1H-pyrazol-1-yl)-2-methylpropan-2-ol]",9.69,6.00,7.95,7.99,–,–,–
"COc1ncccc1-c1cc2c(-c3cn(CCC#N)nc3-c3ccc(F)cc3)ncnc2o1 [Example 285, 3-{3-(4-fluorophenyl)-4-[6-(2-methoxypyridin-3-yl)furo[2,3-d]pyrimidin-4-yl]-1H-pyrazol-1-yl}propanenitrile]",9.64,6.49,8.31,8.43,–,–,–
"COc1ncccc1-c1cc2c(-c3cn(CC(F)(F)CO)nc3-c3ccc(F)cc3)ncnc2o1 [Example 286, 2,2-difluoro-3-{3-(4-fluorophenyl)-4-[6-(2-methoxypyridin-3-yl)furo[2,3-d]pyrimidin-4-yl]-1H-pyrazol-1-yl}propan-1-ol]",9.69,5.95,7.70,7.80,–,–,–
